The subject of data set [1] is chorioallantoic membrane (CAM). In kind it is in vivo. The procedure: (§1) To investigate the cytotoxicity of calcium peroxide, hyaluronic acid, and a combination thereof on cells, the substances were given to human primary fibroblasts, osteoblasts, and human umbilical vein endothelial cells (HUVEC) in vitro and compared to untreated cells and a dead control. For this purpose, cytotoxicity tests were performed according to ISO 10993-5 by measuring the cell viability quantitatively and […]. Additionally, biocompatibility tests were performed in the chorioallantoic membrane assay (CAM assay) in fertilized hen's eggs. All tests were repeated at least three times independently. In all tests 30 mg/mL hyaluronic acid and 0.256 mg/mL CaO2 were used. According to ISO 10993-5, cytotoxicity is defined by more than 30% reduction of the viable cell number by the substance.
Fertilized white Leghorn chicken eggs (LSL Rhein-Main GmbH, Dieburg, Germany) were incubated at 38° C. with constant humidity of 55 rH in an incubator (Type 3000 digital and fully automatic, Siepmann GmbH, Herdecke, Germany). For the first three days, eggs were placed horizontally on one side to ensure that the CAM would detach from the upwards pointing eggshell. On the embryonic development day (EDD) 3, eggs were prepared by removing 5-6 mL of the albumen in order to enlarge the space between eggshell and CAM. A small window of 3×2 cm was cut into the upwards pointing part of the eggshell. The window was covered with Parafilm® (Sigma-Aldrich, St. Louis, MO, USA) to prevent evaporation. On EDD-8, Gelaspon Strips (Bausch & Lomb Inc.; New York, USA) were cut in slices of 1×0.5×2 mm. 20 μl of each substance (512 mg/L CaO2, 10 mg/mL sodium hyaluronate, combination thereof) were added to the sponge. 20 μl of water was used as control. The further assessment of potential tissue adverse events was performed blinded. After 3 h, on EDD-10, and EDD-12, pictures were taken with a digital intravital fluorescence microscope (Olympus BXFM, Olympus Deutschland GmbH, Hamburg, Germany) at a 100-fold magnification using the cellSens Dimension software package.

The subject of data set [2] is planktonic Porphyromonas gingivalis DSM 20709. Description: Planktonic bacterial growth and metabolic activity of P. gingivalis. In kind it is cell-based. To be noted: for relative metabolic activity compared to the control: FIG. 5 lower right; for optical density at 600 nm (growth) compared to the control: FIG. 5 top right. How it is done: (§2) According to FIG. 5, different concentrations of calcium peroxide were applied to mature biofilms in combination with hyaluronic acid. Calcium peroxide was added to planktonic bacterial strains S. oralis and P. gingivalis in concentrations ranging from 0 mg/L (control) to 500 mg/L with hyaluronic acid being present in a concentration of 11.550 mg/L. Shown in each case are the optical density at 600 nm, a parameter for the growth of a bacterial culture, and the relative metabolic activity. […] The autoclaved calcium peroxide (CaO2) (Sigma Aldrich, St. Louis, MO, US), ZnO2 and/or MgO2 was dissolved in sterile filtered, deionized, and autoclaved water. By serial dilutions with water (for planktonic experiments) or BHI/VitK (for biofilm experiments) the solutions were adjusted to concentration of 3.9-500 mg/l CaO2 for bacterial experiments. All solutions were freshly prepared for each experiment. Streptococcus oralis ATCC 9811 was obtained from the American Type Culture Collection (ATCC) and Porphyromonas gingivalis DSM 20709 derived from the German Collection of Microorganisms and Cell Cultures (DSMZ). The strains were grown under anaerobic conditions (80% N2, 10% H2, 10% CO2) at 37° C. for 24 h in 50 mL screw cap tube (Sarstedt, Nümbrecht, Germany) with Brain Heart Infusion Medium (BHI; Oxoid, Wesel, Germany) containing 10 μg/mL vitamin K (Roth, Karlsruhe, Germany; BHI/VitK) to obtain 24-hour-old precultures for further processing. In order to determine the influence of CaO2 on planktonic S. oralis and P. gingivalis, the 24-hour-old precultures were pelleted by centrifugation at 4,000 g for 15 min at 4° C., the supernatant was discarded and the bacterial pellets were resuspended in fresh double concentrated BHI/VitK medium (2×BH/VitK). The optical density was measured at 600 nm (OD600; BioPhotometer, Eppendorf, Hamburg, Germany), adjusted to 0.2 and dilute 1:10 with 2×BHI/VitK to 0.02. The freshly prepared CaO2 solution was mixed equally with the bacterial cultures (OD600=0.02) to a final OD600=0.01 and following final concentrations for CaO2: As positive controls, bacterial cultures (OD600=0.02) were mixed 1:2 with sterile filtered, deionized and autoclaved water (growth controls). As negative controls, 2×BHI/VitK was mixed equally with sterile filtered, deionized and autoclaved water (medium control) and the CaO2 solution was mixed 1:2 with 2×BHI/VitK (CaO2 solution control). Finally, 150 μL of each suspension was transferred into each well of a 96-well plate and cultivated for 24 h at 37° C. rotating (180 rpm) under anaerobic conditions (Anaerobic Jar and AnaeroGen; Oxoid, Wesel, Germany). All experiments were carried out in three biological and two technical replicates. To evaluate the effect of CaO2 on the growth of planktonic S. oralis and P. gingivalis cultures, the 24-h-old bacterial cultures were mixed and the optical density (OD600) was measured with a plate reader (Tecan, Mennedorf, Switzerland). Metabolic activity was measured using the BacTiter-Glo™ Microbial Viability Assay (Promega, Mannheim, Germany). 50 μL BacTiter-Glo™ reagent and 50 μL of the well-mixed bacterial cultures were added to opaque 96-well plates. After 5 min of incubation at room temperature under light protection, the samples were mixed again and the amount of adenosine triphosphate (ATP) was determined by measuring the luminescence using the plate reader. All results were normalized to the medium or CaO2 solution controls.

In data set [3] the test system is planktonic Streptococcus oralis ATCC 9811. Kind of data set: Planktonic bacterial growth and metabolic activity of S. oralis. In kind it is cell-based. The note with it: for optical density at 600 nm (growth) compared to the control: 24 h anaerobic, FIG. 5 upper left. How it is done:
as §2, with “As negative controls, 2×BHI/VitK was mixed equally with sterile filtered, deionized and autoclaved water (medium control) and the CaO2 solution was mixed 1:2 with 2×BHI/VitK (CaO2 solution control). Finally, 150 μL of each suspension was transferred into each well of a 96-well plate and cultivated for 24 h at 37° C. rotating (180 rpm) under anaerobic conditions (Anaerobic Jar and AnaeroGen; Oxoid, Wesel, Germany). All experiments were carried out in three biological and two technical replicates.” left out, “50 μL BacTiter-Glo™ reagent and 50 μL of the well-mixed bacterial cultures were added to opaque 96-well plates.” left out, “All results were normalized to the medium or CaO2 solution controls.” left out

In data set [4] the test system is human primary fibroblasts obtained from human oral mucosa. Type of data set: cell-based. To be noted: 0.256 mg/mL calcium peroxide as single substance; cytotoxicity = more than 30% reduction (ISO 10993-5); FIG. 1. The procedure:
as §1
Fibroblasts were obtained from human oral mucosa. Tissue samples were cut into small pieces of approximately 2×2 mm with a sterile disposable scalpel. […]
Cells were seeded into a 24-well-plate and they were given time to adhere overnight. […] Fluorescence was measured on a Fluorescence Microplate Reader (Fluoroskan Ascent Microplate reader, ThermoFisher Scientific, Waltham, MA, USA). Results were given as relative fluorescence using a 538 nm excitation filter and a 600 nm emission filter, normalized to untreated control.

Data set [5] relates to human primary osteoblasts. In kind it is cell-based. To be noted: 30 mg/mL hyaluronic acid, 0.256 mg/mL CaO2; FIG. 2. How it is done: as §1
Primary human osteoblasts were isolated according to the following protocol. Human bone specimens were obtained during hip or knee joint replacement surgeries. […]
Cells were seeded into a 24-well-plate and they were given time to adhere overnight. […] Fluorescence was measured on a Fluorescence Microplate Reader (Fluoroskan Ascent Microplate reader, ThermoFisher Scientific, Waltham, MA, USA). […]

Here are results for two compounds from patent publication US20250152623A1, “Compositions and kits for use in wound healing, tissue regeneration and/or bone regeneration” (priority 2022, published 2025).

Read-outs that look alike come from different tables or passages of the source.

In the case of hyaluronic acid, in data set [1] (in vivo), the “adverse tissue reactions on the CAM” value is “no adverse tissue reactions” and the “cytotoxic effect on the CAM” value was “none of the tested substances had a cytotoxic effect”.

Regarding `[Ca+2].[O-][O-]` [calcium peroxide], the “relative metabolic activity compared to the control” value in data set [2] (calcium peroxide 125 mg/L) is recorded as “significantly decreased”; in data set [2] (calcium peroxide 250 mg/L), “significantly decreased”; in data set [2] (calcium peroxide 500 mg/L) it was “significantly decreased”; in data set [3] (calcium peroxide up to 500 mg/L, FIG. 5 lower left) it was “unchanged”. Also, the “optical density at 600 nm (growth) compared to the control” value in data set [2] (calcium peroxide 125 mg/L) is “significantly decreased”; in data set [2] (calcium peroxide 250 mg/L) it was “significantly decreased”; in data set [2] (calcium peroxide 500 mg/L) it was “significantly decreased”; in data set [3] (calcium peroxide 250 mg/L) it was “decreased significantly”; in data set [3] (calcium peroxide 500 mg/L) it was “decreased significantly”. Moreover, in data set [3] (calcium peroxide 125 mg/L), the “growth inhibition of S. oralis” value is “only very slightly inhibited”. For the same compound, the “reduction in cell viability” value in data set [4] is given as “more than 30%”. In addition, in data set [5], the “viability after treatment in comparison to untreated osteoblasts (=100% cell viability)” value is listed as “hardly showed a reduction”. For the same compound, in data set [1] (FIG. 4), the “adverse tissue reactions on the CAM” value is recorded as “no adverse tissue reactions”. Further, the “angiogenesis (area of the sponge covered by blood vessels) compared to untreated CAM tissue” value in data set [1] (FIG. 4A) was “not significantly different”. For the same compound, the “cytotoxic effect on the CAM” value in data set [1] (substance applied on sponge, FIGS. 4A and 4B) was “none of the tested substances had a cytotoxic effect”.
